For this assay, the target named is T1, human 11βHSD1 enzyme (Homo sapiens, UniProt P28845).
T1 construct: baculovirus expressed N terminal 6-His tagged full length human 11βHSD1 enzyme; 6-His (N); made in house
As to the kind of experiment: 11βHSD1 cortisone to cortisol conversion, competitive HTRF assay. Type of assay: biochemical. As to conditions: human 11-βHSD; test concentration of 30 μM of compound. The essentials: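 Enzyme was baculovirus-expressed, N-terminal 6-His-tagged full-length human 11βHSD1, purified on a copper chelate column. Compounds were added in buffer containing 1% DMSO at 10-fold final concentration.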

T1 sequence (P28845 whole entry): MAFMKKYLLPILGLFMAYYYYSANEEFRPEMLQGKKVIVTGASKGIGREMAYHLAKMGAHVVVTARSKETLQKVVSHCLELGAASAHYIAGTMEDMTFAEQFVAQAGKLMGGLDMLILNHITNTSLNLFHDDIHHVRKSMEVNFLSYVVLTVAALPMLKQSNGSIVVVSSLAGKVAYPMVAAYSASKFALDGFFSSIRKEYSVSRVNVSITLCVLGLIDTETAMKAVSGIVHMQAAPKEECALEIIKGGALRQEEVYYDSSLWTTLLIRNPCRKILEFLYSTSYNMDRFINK

With `O=C(N[C@H]1C2CC3CC1C[C@@](O)(C3)C2)c1cnc(OC2CCC2)nc1C1CCCC1` [Example 111, 2-cyclobutyloxy-4-cyclopentyl-N-[(2r,5s)-5-hydroxyadamantan-2-yl]pyrimidine-5-carboxamide], the inhibition at 30 µM amounted to 108%.
Then `O=C(N[C@H]1C2CC3CC1C[C@@](O)(C3)C2)c1cnc(OC2CCCC2)nc1C1CCCC1` [Example 112, 4-cyclopentyl-2-cyclopentyloxy-N-[(2r,Ss)-5-hydroxyadamantan-2-yl]pyrimidine-5-carboxamide], with 104%.
For the molecule `O=C(N[C@H]1C2CC3CC1C[C@@](O)(C3)C2)c1cnc(OC2COC2)nc1C1CCCC1` [Example 113, 4-cyclopentyl-N-[(2r,5s)-5-hydroxyadamantan-2-yl]-2-(oxetan-3-yloxy)pyrimidine-5-carboxamide], the inhibition at 30 µM amounted to 98.4%.
Then `O=C(N[C@H]1C2CC3CC1C[C@@](O)(C3)C2)c1cnc(N2CCSCC2)nc1C1CCCC1` [Example 114, 4-Cyclopentyl-N-[(2s,5r)-5-hydroxyadamantan-2-yl]-2-thiomorpholin-4-ylpyrimidine-5-carboxamide], with 106%.
As for `O=C(N[C@H]1C2CC3CC1C[C@@](O)(C3)C2)c1cnc(N2CC[S+]([O-])CC2)nc1C1CCCC1` [Example 115, 4-Cyclopentyl-N-[(2r,5 s)-5-hydroxyadamantan-2-yl]-2-(1-oxo-1,4-thiazinan-4-yl)pyrimidine-5-carboxamide], the figure is 93.4%.
For `O=C(N[C@H]1C2CC3CC1C[C@@](O)(C3)C2)c1cnc(N2CCS(=O)(=O)CC2)nc1C1CCCC1` [Example 116, 4-Cyclopentyl-2-(1,1-dioxo-1,4-thiazinan-4-yl)-N-[(2r,5s)-5-hydroxyadamantan-2-yl]pyrimidine-5-carboxamide], the inhibition at 30 µM worked out at 98.1%.
Then `COc1ncc(C(=O)N[C@H]2C3CC4CC2C[C@@](O)(C4)C3)c(C2CCCC2)n1` [Example 117, 4-cyclopentyl-N-[(2r,5s)-5-hydroxyadamantan-2-yl]-2-methoxypyrimidine-5-carboxamide], with 97.4%; and `CNc1ncc(C(=O)N[C@H]2C3CC4CC2C[C@@](O)(C4)C3)c(C2CCCC2)n1` [Example 118, 4-cyclopentyl-N-[(2r,5s)-5-hydroxyadamantan-2-yl]-2-methylaminopyrimidine-5-carboxamide], with 93.7%; and `O=C(N[C@H]1C2CC3CC1C[C@@](O)(C3)C2)c1cnc(N2C[C@@H]3C[C@H]2CO3)nc1C1CCCC1` [Example 120, 4-cyclopentyl-N-[(2r,5s)-5-hydroxyadamantan-2-yl]-2-[(1S,4S)-2-oxa-5-azabicyclo[2.2.1]heptan-5-yl]pyrimidine-5-carboxamide], with 101%.
As for `CC(C)Nc1ncc(C(=O)N[C@H]2C3CC4CC2C[C@@](O)(C4)C3)c(C2CCCC2)n1` [Example 121, 4-cyclopentyl-N-[(2r,5s)-5-hydroxyadamantan-2-yl]-2-(propan-2-ylamino)pyrimidine-5-carboxamide], the figure is 104%.
Then `O=C(N[C@H]1C2CC3CC1C[C@@](O)(C3)C2)c1cnc(NC2CC2)nc1C1CCCC1` [Example 122, 4-cyclopentyl-2-(cyclopropylamino)-N-[(2r,5s)-5-hydroxyadamantan-2-yl]pyrimidine-5-carboxamide], with 97.5%.
Turning to `C[C@H]1COCCN1c1ncc(C(=O)N[C@H]2C3CC4CC2C[C@@](O)(C4)C3)c(C2CCCC2)n1` [Example 123], the inhibition at 30 µM amounted to 99.1%.
Then `COCCN1CCN(c2ncc(C(=O)N[C@H]3C4CC5CC3C[C@](O)(C5)C4)c(C3CCCC3)n2)CC1` [Example 125, 4-cyclopentyl-N-[(2r,5s)-5-hydroxyadamantan-2-yl]-2-[4-(2-methoxyethyl)piperazin-1-yl]pyrimidine-5-carboxamide], with 95%.
Then `CC(=O)N1CCN(c2ncc(C(=O)N[C@H]3C4CC5CC3C[C@@](O)(C5)C4)c(C3CCCC3)n2)CC1` [Example 126, 2-(4-acetylpiperazin-1-yl)-4-cyclopentyl-N-[(2r,5s)-5-hydroxyadamantan-2-yl]pyrimidine-5-carboxamide], with 96.6%; and `CC(C)N1CCN(c2ncc(C(=O)N[C@H]3C4CC5CC3C[C@@](O)(C5)C4)c(C3CCCC3)n2)CC1=O` [Example 127, 4-cyclopentyl-N-[(2r,5s)-5-hydroxyadamantan-2-yl]-2-(3-oxo-4-propan-2-ylpiperazin-1-yl)pyrimidine-5-carboxamide], with 103%.
As for `CN1CCN(c2ncc(C(=O)N[C@H]3C4CC5CC3C[C@@](O)(C5)C4)c(C3CCCC3)n2)CC1=O` [Example 128, 4-cyclopentyl-N-[(2r,5s)-5-hydroxyadamantan-2-yl]-2-(4-methyl-3-oxopiperazin-1-yl)pyrimidine-5-carboxamide], the figure is 99.1%.
Consider `O=C(N[C@H]1C2CC3CC1C[C@](O)(C3)C2)c1cnc(NC2CCC2)nc1C1CCCC1` [Example 129, 4-cyclopentyl-2-(cyclobutylamino)-N-[(2r,5s)-5-hydroxyadamantan-2-yl]pyrimidine-5-carboxamide], for which the inhibition at 30 µM came out at 95.5%.
Take `O=C(N[C@H]1C2CC3CC1C[C@](O)(C3)C2)c1cnc(NC2CCCC2)nc1C1CCCC1` [Example 130, 4-cyclopentyl-2-(cyclopentylamino)-N-[(2r,5s)-5-hydroxyadamantan-2-yl]pyrimidine-5-carboxamide]: the inhibition at 30 µM was 96.1%.
On to `O=C(N[C@H]1C2CC3CC1C[C@@](O)(C3)C2)c1cnc(N2CCC2)nc1C1CCCC1` [Example 131, 2-(azetidin-1-yl)-4-cyclopentyl-N-[(2r,5s)-5-hydroxyadamantan-2-yl]pyrimidine-5-carboxamide], for which the inhibition at 30 µM is 101%.
Then `CN(C)c1ncc(C(=O)N[C@H]2C3CC4CC2C[C@@](O)(C4)C3)c(C2CCCC2)n1` [Example 133, 4-cyclopentyl-2-dimethylamino-N-[(2r,5s)-5-hydroxyadamantan-2-yl]pyrimidine-5-carboxamide], with 94%; and `C[C@@H]1CN(c2ncc(C(=O)N[C@H]3C4CC5CC3C[C@](O)(C5)C4)c(C3CCCC3)n2)C[C@H](C)N1` [Example 134, 4-cyclopentyl-2-[(3S,5R)-3,5-dimethylpiperazin-1-yl]-N-[(2r,5s)-5-hydroxyadamantan-2-yl]pyrimidine-5-carboxamide], with 94.1%; and `Nc1ncc(C(=O)N[C@H]2C3CC4CC2C[C@@](O)(C4)C3)c(C2CCCC2)n1` [Example 135, 2-amino-4-cyclopentyl-N-[(2r,5s)-5-hydroxyadamantan-2-yl]pyrimidine-5-carboxamide], with 100%.
With `O=C(N[C@H]1C2CC3CC1C[C@@](O)(C3)C2)c1cnc(N2CCOCC2CO)nc1C1CCCC1` (some centres unmarked) [Example 141, 4-cyclopentyl-N-[(2r,5s)-5-hydroxyadamantan-2-yl]-2-[3-(hydroxymethyl)morpholin-4-yl]pyrimidine-5-carboxamide], the inhibition at 30 µM came to 105%.
Turning to `O=C(N[C@H]1C2CC3CC1C[C@@](O)(C3)C2)c1cnc(N[C@@H]2CCOC2)nc1C1CCCC1` [Example 142, 4-cyclopentyl-N-[(2r,5s)-5-hydroxyadamantan-2-yl]-2-[[(3R)-oxolan-3-yl]amino]pyrimidine-5-carboxamide], the inhibition at 30 µM was 99.7%.
`CS(=O)(=O)N1CCN(c2ncc(C(=O)N[C@H]3C4CC5CC3C[C@@](O)(C5)C4)c(C3CCCC3)n2)CC1` [Example 143, 4-cyclopentyl-N-[(2r,5s)-5-hydroxyadamantan-2-yl]-2-(4-methylsulfonylpiperazin-1-yl)pyrimidine-5-carboxamide]: the inhibition at 30 µM worked out at 95%.
Then `O=C(N[C@H]1C2CC3CC1C[C@@](O)(C3)C2)c1cnc(N[C@H]2CCOC2)nc1C1CCCC1` [Example 144, 4-cyclopentyl-N-[(2r,5s)-5-hydroxyadamantan-2-yl]-2-[[(3S)-oxolan-3-yl]amino]pyrimidine-5-carboxamide], with 98.8%; and `O=C(N[C@H]1C2CC3CC1C[C@@](O)(C3)C2)c1cnc(N2CCOC(CO)C2)nc1C1CCCC1` (some centres unmarked) [Example 145, 4-cyclopentyl-N-[(2r,Ss)-5-hydroxyadamantan-2-yl]-2-[2-(hydroxymethyl)morpholin-4-yl]pyrimidine-5-carboxamide], with 92.9%.
Consider `O=C(N[C@H]1C2CC3CC1C[C@@](O)(C3)C2)c1cnc(N2CC(F)(F)C2)nc1C1CCCC1` [Example 146, 4-cyclopentyl-2-(3,3-difluoroazetidin-1-yl)-N-[(2r,5s)-5-hydroxyadamantan-2-yl]pyrimidine-5-carboxamide], for which the inhibition at 30 µM turned out to be 93.4%.
As for `O=C(N[C@H]1C2CC3CC1C[C@@](O)(C3)C2)c1cnc(NCCN2CCOCC2)nc1C1CCCC1` [Example 147, 4-cyclopentyl-N-[(2r,5s)-5-hydroxytricyclo[3.3.1.13,7]dec-2-yl]-2-[(2-morpholin-4-ylethyl)amino]pyrimidine-5-carboxamide], the figure is 103%; as for `C[C@@H]1CN(CCNc2ncc(C(=O)N[C@H]3C4CC5CC3C[C@@](O)(C5)C4)c(C3CCCC3)n2)C[C@H](C)O1` [Example 148, 4-cyclopentyl-2-({2-[(2R,6S)-2,6-dimethylmorpholin-4-yl]ethyl}amino)-N-[(2r,5s)-5-hydroxytricyclo[3.3.1.13,7]dec-2-yl]pyrimidine-5-carboxamide], 102%.
As for `O=C(N[C@H]1C2CC3CC1C[C@@](O)(C3)C2)c1cnc(C2CC2)nc1C1CCCC1` [Example 149, 4-Cyclopentyl-2-cyclopropyl-N-[(2r,5s)-5-hydroxyadamantan-2-yl]pyrimidine-5-carboxamide], the figure is 92%; as for `CC(C)c1ncc(C(=O)N[C@H]2C3CC4CC2C[C@@](O)(C4)C3)c(C2CCCC2)n1` [Example 150, 4-Cyclopentyl-N-[(2r,5s)-5-hydroxyadamantan-2-yl]-2-propan-2-ylpyrimidine-5-carboxamide], 96%.

Values taken from patent US20090264401A1, “SUBSTITUTED PYRIMIDIN-5-CARBOXAMIDES 281” (AstraZeneca AB, priority 2008, published 2009).
